What is called IC50 is the point on the concentration scale where inhibition reaches its midpoint.

The structures appear in SMILES notation.

For this assay, the target named is T1, PI3Kα (Homo sapiens, UniProt P42336).
T1 construct: His
T1 sequence (P42336 whole entry, species assumed): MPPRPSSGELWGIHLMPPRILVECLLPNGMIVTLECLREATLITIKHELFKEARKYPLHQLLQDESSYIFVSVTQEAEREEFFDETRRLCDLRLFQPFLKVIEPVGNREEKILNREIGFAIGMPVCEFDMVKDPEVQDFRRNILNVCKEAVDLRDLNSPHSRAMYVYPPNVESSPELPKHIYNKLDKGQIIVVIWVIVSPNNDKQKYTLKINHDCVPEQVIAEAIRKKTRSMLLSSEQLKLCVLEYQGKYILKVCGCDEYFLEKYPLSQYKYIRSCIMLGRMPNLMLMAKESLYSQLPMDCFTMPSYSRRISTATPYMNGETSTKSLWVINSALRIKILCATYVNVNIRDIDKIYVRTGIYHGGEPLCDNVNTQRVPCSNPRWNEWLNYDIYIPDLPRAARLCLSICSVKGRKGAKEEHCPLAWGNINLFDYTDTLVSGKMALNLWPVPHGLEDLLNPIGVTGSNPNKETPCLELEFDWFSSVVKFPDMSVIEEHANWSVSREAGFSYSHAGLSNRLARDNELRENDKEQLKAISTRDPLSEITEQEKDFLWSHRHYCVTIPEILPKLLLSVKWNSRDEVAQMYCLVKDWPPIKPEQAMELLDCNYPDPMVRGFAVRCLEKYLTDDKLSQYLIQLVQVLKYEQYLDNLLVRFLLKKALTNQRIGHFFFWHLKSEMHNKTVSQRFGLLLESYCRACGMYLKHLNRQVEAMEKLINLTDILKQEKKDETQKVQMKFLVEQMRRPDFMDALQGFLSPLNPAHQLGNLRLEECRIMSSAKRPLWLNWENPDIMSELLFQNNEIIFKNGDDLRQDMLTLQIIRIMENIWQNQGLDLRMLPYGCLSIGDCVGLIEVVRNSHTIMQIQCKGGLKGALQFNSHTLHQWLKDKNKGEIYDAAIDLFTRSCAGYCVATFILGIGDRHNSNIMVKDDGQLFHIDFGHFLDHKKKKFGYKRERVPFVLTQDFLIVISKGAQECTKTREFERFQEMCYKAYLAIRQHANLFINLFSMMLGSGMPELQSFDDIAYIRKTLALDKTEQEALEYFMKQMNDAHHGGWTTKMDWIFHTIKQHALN
T1 sequence (P27986 whole entry partner, species assumed): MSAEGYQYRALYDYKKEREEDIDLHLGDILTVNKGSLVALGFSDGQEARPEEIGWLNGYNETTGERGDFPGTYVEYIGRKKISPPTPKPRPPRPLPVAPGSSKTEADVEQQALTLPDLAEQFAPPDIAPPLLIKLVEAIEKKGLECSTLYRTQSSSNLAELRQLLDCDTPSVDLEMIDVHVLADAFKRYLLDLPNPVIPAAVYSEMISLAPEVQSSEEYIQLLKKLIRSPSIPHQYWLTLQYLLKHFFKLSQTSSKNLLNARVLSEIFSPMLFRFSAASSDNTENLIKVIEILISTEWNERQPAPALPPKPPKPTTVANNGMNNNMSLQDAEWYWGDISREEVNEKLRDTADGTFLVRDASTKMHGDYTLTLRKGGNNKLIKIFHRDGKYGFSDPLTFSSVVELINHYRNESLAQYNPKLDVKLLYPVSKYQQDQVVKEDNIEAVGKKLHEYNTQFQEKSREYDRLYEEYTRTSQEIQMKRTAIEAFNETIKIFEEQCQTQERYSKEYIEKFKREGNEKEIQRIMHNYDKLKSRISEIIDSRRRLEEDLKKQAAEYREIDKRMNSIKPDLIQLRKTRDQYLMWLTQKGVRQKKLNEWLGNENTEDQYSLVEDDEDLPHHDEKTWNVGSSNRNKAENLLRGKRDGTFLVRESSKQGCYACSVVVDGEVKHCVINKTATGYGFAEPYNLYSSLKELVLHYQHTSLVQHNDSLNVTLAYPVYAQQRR
As to the kind of experiment: PI3K Alpha Leadseeker SPA Assay. In kind it is biochemical. Particulars: in at least one experimental run; read-out: IC50 value against PI3Kα. As for the experimental part: Compounds of the present invention were tested according to the following assays and found as inhibitors of PI3 kinases, particularly PI3Kα. The exemplified compounds were tested and found active against PI3Kα. The IC50's ranged from about 1 nM to 10 μM.
SPA imaging beads are microspheres containing scintillant which emit light in the red region of the visible spectrum. As a result, these beads are ideally suited to use with a CCD imager such as the Viewlux. The Leadseeker beads used in this system are polystyrene beads that have been coupled with polyethyleneimine. When added to the assay mixture, the beads absorb both the substrate (PIP2) and product (PIP3). Adsorbed P^33—PIP3 will cause an increase in signal, measured as ADUs (analog to digital units). This protocol details the use of the PEI-PS Leadseeker beads for assays using His-p110/p85 PI3K alpha.
Solid compounds are typically plated with 0.1 μl of 100% DMSO in all wells (except column 6 and 18) of a 384-well, flat bottom, low volume plate (Greiner 784075). The compounds are serially diluted (3-fold in 100% DMSO) across the plate from column 1 to column 12 and column 13 to column 24 and leave column 6 and 18 containing only DMSO to yield 11 concentrations for each test compound.
The assay buffer contains MOPS (pH 6.5), CHAPS, and DTT. PI3K alpha and PIP2 (L-alpha-D-myo-Phosphatidylinositol 4,5-bisphosphate [PI(4,5)P2]3-O-phospho linked, D(+)-sn-1,2-di-O-octanoylglyceryl, CellSignals # 901) are mixed and incubated in the plate with compound for 30 min prior to starting the reaction with the addition of P^33-ATP and MgCl2 (reagents added using Zoom). Enzyme-free wells (column 18) are typically done to determine the low control. PEI-PS Leadseeker beads in PBS/EDTA/CHAPS are added (by Multidrop) to quench the reaction, and the plates are allowed to incubate for at least one hour (typically overnight) before centrifugation. The signal is determined using a Viewlux detector and is then imported into curve fitting software (Activity Base) for construction of concentration response curves. The percent inhibition of activity was calculated relative to high controls (C1, 0.1 μl DMSO in column 6, rows A-P)) and low controls (C2, 5 μl of 40 uM PIP2 in buffer in column 18, rows A-P) using, 100*(1-(U1-C2)/(C1-C2)). The concentration of test compound yielding 50% inhibition was determined using the equation, y=((Vmax*x)/(K+x))+Y2, where “K” was equal to the IC50. The IC50 values were converted to pIC50 values, i.e., −log IC50 in Molar concentration.
As for `CN(C)S(=O)(=O)c1cc(-c2ccc3nc(NCCO)nc(-c4ccncc4)c3c2)cnc1N` [Example 1, 2-amino-5-[2-[(2-hydroxyethyl)amino]-4-(4-pyridinyl)-6-quinazolinyl]-N,N-dimethyl-3-pyridinesulfonamide], the IC50 stood at 7.9 nM.

As to `OCc1cccc(Nc2nc(-c3ccncc3)c3cc(-c4cnc5[nH]ccc5c4)ccc3n2)c1` [Example 2, (3-{[4-(4-pyridinyl)-6-(1H-pyrrolo[2,3-b]pyridin-5-yl)-2-quinazolinyl]amino}phenyl)methanol], the IC50 turned out to be 100 nM.

As to `CC(=O)Nc1nc(-c2ccncc2)c2cc(-c3cnc(Cl)c(NS(=O)(=O)c4ccccc4)c3)ccc2n1` [Example 6, N-[6-{6-chloro-5-[(phenylsulfonyl)amino]-3-pyridinyl}-4-(4-pyridinyl)-2-quinazolinyl]acetamide], the 50% inhibitory concentration (IC50) stood at 1.4 nM.

Take `c1nc(N2CCOCC2)c2cc(-c3cnc4[nH]ccc4c3)ccc2n1` [Example 15, 4-(4-morpholinyl)-6-(1H-pyrrolo[2,3-b]pyridin-5-yl)quinazoline]: the IC50 is 50 nM.

Consider `NS(=O)(=O)c1cncc(-c2ccc3ncnc(N4CCCCC4)c3c2)c1` [Example 16, 5-[4-(1-piperidinyl)-6-quinazolinyl]-3-pyridinesulfonamide], for which the IC50 came to 40 nM.

`CCN1CCN(c2ncnc3ccc(-c4cncc(NS(=O)(=O)c5ccc(F)cc5F)c4)cc23)CC1=O` [Example 61, N-{5-[4-(4-ethyl-3-oxo-1-piperazinyl)-6-quinazolinyl]-3-pyridinyl}-2,4-difluorobenzenesulfonamide]: the IC50 stood at 1 nM.

`COc1ccc(Nc2ncnc3ccc(-c4cncc(NS(=O)(=O)c5ccc(F)cc5F)c4)cc23)cc1Cl` [Example 73, N-[5-(4-{[3-chloro-4-(methyloxy)phenyl]amino}-6-quinazolinyl)-3-pyridinyl]-2,4-difluorobenzenesulfonamide]: the IC50 is 2.5 nM.

(Values after patent publication US20090018131A1, “QUINAZOLINE DERIVATIVES AS P13 KINASE INHIBITORS” (priority 2007, published 2009).)
